Measurements: patent EP0492277A2, “Cephalosporin derivatives” (F. HOFFMANN-LA ROCHE AG, priority 1990, dated 1992)

Columns and labels:
Assay in all cases: MIC, Agar Dilution Method
Assay type in all cases: cell-based
[1] = test system: Cit. freundi BS-16
Method: (§1) In vitro activity of the compounds of the present invention was measured by the Minimum Inhibitory Concentration (MIC) in micrograms/ml utilizing the Agar Dilution Method, which is well known in the art, against a variety of gram-negative and gram-positive organisms.

[2] = test system: E. coli 257
Method: as §1

[3] = test system: E. coli ATCC 25922
Method: as §1

[4] = test system: E. coli TEM-1
Method: as §1

[5] = test system: Enter. cloacae 5699
Method: as §1

[6] = test system: Enter. cloacae P99
Method: as §1

[7] = test system: K. pneumoniae A
Method: as §1

[8] = test system: Prot. mirabilis 90
Method: as §1

[9] = test system: Prot. vulgaris 1028 BC
Method: as §1

[10] = test system: Prot. vulgaris ATCC 6380
Method: as §1

[11] = test system: Ps. aeruginosa 18SH
Method: as §1

[12] = test system: Ps. aeruginosa 5712
Method: as §1

[13] = test system: Ps. aeruginosa 765
Method: as §1

[14] = test system: Ps. aeruginosa 8780
Method: as §1

[15] = test system: Ps. aeruginosa ATCC 27853
Method: as §1

[16] = test system: Ser. marcescens 1071
Method: as §1

[17] = test system: Ser. marcescens SM
Method: as §1

[18] = test system: Staph. aureus 1059B
Method: as §1

[19] = test system: Staph. aureus 67
Method: as §1

[20] = test system: Staph. aureus 753
Method: as §1

[21] = test system: Staph. aureus ATCC 29213
Method: as §1

[22] = test system: Staph. aureus Smith
Method: as §1

[23] = test system: Str. faecalis ATCC 29212
Method: as §1

[24] = test system: Str. pneumoniae 6301
Method: as §1

[25] = test system: Str. pyogenes 4
Method: as §1

Row | Substance | IN VITRO MIC [1] | IN VITRO MIC [2] | IN VITRO MIC [3] | IN VITRO MIC [4] | IN VITRO MIC [5] | IN VITRO MIC [6] | IN VITRO MIC [7] | IN VITRO MIC [8] | IN VITRO MIC [9] | IN VITRO MIC [10] | IN VITRO MIC [11] | IN VITRO MIC [12] | IN VITRO MIC [13] | IN VITRO MIC [14] | IN VITRO MIC [15] | IN VITRO MIC [16] | IN VITRO MIC [17] | IN VITRO MIC [18] | IN VITRO MIC [19] | IN VITRO MIC [20] | further results
1 | [6R-[6α,7β(Z)]]-7-[[(2-Amino-4-thiazolyl)[(1-carboxyl-1-methylethoxy)imino]acetyl]amino]-3-[[4-(3-carboxy-1-cyclopropyl-6-fluoro-1,4-dihydro-4-oxo-7-quinolinyl)-1-piperazinyl]methyl]-8-oxo 5-thia-1-azabicyclo[4.2.0]-oct-2-ene-2-carboxylic acid sodium salt [Compound A] | 0.125 µg/mL | 0.25 µg/mL | 0.25 µg/mL | 0.5 µg/mL | 1 µg/mL | 0.5 µg/mL | 0.5 µg/mL | 2 µg/mL | 1 µg/mL | 0.5 µg/mL | 2 µg/mL | 16 µg/mL | 8 µg/mL | 8 µg/mL | 8 µg/mL | 1 µg/mL | 1 µg/mL | 4 µg/mL | 16 µg/mL | 8 µg/mL | IN VITRO MIC [21]: 8 µg/mL; IN VITRO MIC [22]: 8 µg/mL; IN VITRO MIC [23]: 8 µg/mL; IN VITRO MIC [24]: 0.25 µg/mL; IN VITRO MIC [25]: 0.25 µg/mL
2 | [6R-[6a,7β(Z)]]-7-[[(2-Amino-4-thiazolyl)[(carboxymethoxy)imino]acetyl]amino]-3-[[4-(3-carboxy-1-cyclopropyl-6-fluoro-1,4-dihydro-4-oxo-7-quinolinyl)-1-piperazinyl]methyl]-8-oxo-5-thia-1-azabicyclo[4.2.0]-oct-2-ene-2-carboxylic acid sodium salt [Compound B] | 1 µg/mL | 0.25 µg/mL | 0.5 µg/mL | 0.5 µg/mL | 1 µg/mL | 0.25 µg/mL | 1 µg/mL | 2 µg/mL | 1 µg/mL | 0.25 µg/mL | 4 µg/mL | 32 µg/mL | 8 µg/mL | 8 µg/mL | 16 µg/mL | 2 µg/mL | 1 µg/mL | 2 µg/mL | 32 µg/mL | 8 µg/mL | IN VITRO MIC [21]: 8 µg/mL; IN VITRO MIC [22]: 8 µg/mL; IN VITRO MIC [23]: 16 µg/mL; IN VITRO MIC [24]: 0.25 µg/mL; IN VITRO MIC [25]: 0.125 µg/mL
